Assays:
recombinant RAF1 = molecular target: T1, recombinant RAF1 (Homo sapiens, UniProt P04049); test: RAF1 (CRAF) substrate assay; type: biochemical; details: RAF1-HEK293T proteomes
T1 construct: expressed in transfected cells; host or cells: HEK293T
Description: Given the potential for indirect inhibitory effects in the competition studies in lysates, ritanserin activity was tested in a CRAF substrate assay. Ritanserin inhibition was measured against recombinant RAF1 using commercial substrate assays. […] RAF1 was overexpressed in HEK293T cells and measured recombinant RAF1 activity by comparing with non-transfected HEK293T (i.e. mock) proteomes.

H82 cells = test: Cell Counts (Trypan Blue); type: cell-based; details: 48 hrs; ritanserin 10 μM
Description: (§1) Cell Counts. Tumor cells were plated in 60 mm plates at a density of 100.000 cells/mL (A549. H1650) or 200,000 cells/mL (H82) and a volume of 3.5 mL/plate. Cells were treated with inhibitors at the indicated concentrations (final DMSO concentration of 0.5%) for 48 hrs at 37° C. under 5% CO2. After incubation, adherent cells were washed and detached with trypsin and all cells were collected and concentrated by spinning at 400×g for 3 min followed by aspiration of media. Cells were resuspended in […] Trypan Blue and 10 μL of this solution counted via a hemocytometer. Dead cells were excluded from all counts. Data were normalized to DMSO-treated wells and significance values determined with one-way ANOVA.

A549 cells = test: Cell Counts (Trypan Blue); type: cell-based; details: 48 hrs; ritanserin 10 μM
Description: as §1

H1650 cells = test: Cell Counts (Trypan Blue); type: cell-based; details: 48 hrs; ritanserin 10 μM
Description: as §1

CRAF = molecular target: T2, CRAF (Homo sapiens, UniProt P04049); test: ATP acyl phosphate chemical proteomics in lung cancer cell proteomes; type: binding; details: for CRAF ATP acyl-phosphate labeling response (words, FIG. 20): H82 and HEK293T lysates, 100 μM Rit, 1 mM RF001
T2 construct: measure selectivity of compounds against native kinases detected in lung cancer proteomes; endogenous in cells; host or cells: H82 small cell lung cancer (and HEK293T) cell lysates; CRAF not detected in A549
T2 sequence (P04049 whole entry): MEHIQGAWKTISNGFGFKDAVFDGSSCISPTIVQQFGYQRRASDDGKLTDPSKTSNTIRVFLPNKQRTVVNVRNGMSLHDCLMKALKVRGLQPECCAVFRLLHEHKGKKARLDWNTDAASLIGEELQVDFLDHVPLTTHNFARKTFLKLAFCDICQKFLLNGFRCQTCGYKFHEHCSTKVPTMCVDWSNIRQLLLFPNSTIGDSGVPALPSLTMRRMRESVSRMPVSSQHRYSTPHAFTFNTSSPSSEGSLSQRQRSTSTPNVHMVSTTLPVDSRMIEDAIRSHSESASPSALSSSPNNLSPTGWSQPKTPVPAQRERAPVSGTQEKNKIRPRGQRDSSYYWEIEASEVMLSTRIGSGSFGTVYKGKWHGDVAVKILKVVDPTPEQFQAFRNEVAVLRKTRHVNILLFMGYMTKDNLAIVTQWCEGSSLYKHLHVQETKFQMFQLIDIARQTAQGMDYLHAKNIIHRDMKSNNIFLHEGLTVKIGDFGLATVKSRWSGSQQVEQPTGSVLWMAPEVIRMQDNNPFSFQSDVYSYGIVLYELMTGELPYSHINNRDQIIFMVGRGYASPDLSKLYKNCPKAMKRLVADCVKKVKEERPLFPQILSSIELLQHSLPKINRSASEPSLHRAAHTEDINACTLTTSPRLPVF
Description: LC-MS analysis of SILAC samples using ATP acyl phosphates. Quantitative chemoproteomics was performed as previously described (Franks et al., 2017; McCloud et al., 2018).
Computational Methods. Data for A549 and H82 cell lines were searched with IP2 and manually validated using the methods previously described (Franks et al., 2017). Data for Desthiobiotin-tagged ATP acyl-phosphate probes and ATP competitive peptides were compared and clustered. Ritanserin and ketanserin inhibition profiles were compared using SILAC ratios and normalized to DMSO.
Based on previous chemical proteomics (Franks, 2017), it was hypothesized that ritanserin is functioning as a kinase inhibitor to mediate cytotoxicity in the lung cancer cell models. […] For these studies, NSCLC and SCLC cells were cultured in isotopically light and heavy amino acids to enable quantitative chemical proteomics (Chang. 2015) by stable isotope labeling with amino acids in cell culture (SILAC, FIG. 17A). […] After probe labeling, light and heavy proteomes were combined, digested with trypsin protease, and desthiobiotin-modified peptides enriched by avidin affinity chromatography and analyzed by LC-MS/MS to identify and quantify isotopically tagged active-site peptides from native kinases as previously described(Franks, 2017) (FIG. 17A).
To further confirm that ritanserin is a CRAF inhibitor, a targeted parallel reaction monitoring method (PRM) was developed to evaluate compound activity against CRAF and other members of the RAF family (ARAF and BRAF). Targeted PRM was needed because of the low abundance of CRAF compared with ARAF and BRAF). […] Ritanserin activity was also measured against RAF kinases in A549 proteomes using the targeted LC-MS method. […] The data further support previous findings that this RAF member is enriched in SCLC cells (REF).

T1 sequence (P04049 whole entry): as above

| Compound | blockade of recombinant RAF1 activity (recombinant RAF1) | cell killing (live cell counts) (H82 cells) | cell killing (live cell counts) (A549 cells) | cell killing (live cell counts) (H1650 cells) | kinase target by SILAC ratio criterion (CRAF; 100 μM, A549 and H82 proteomes) | CRAF ATP acyl-phosphate labeling response (words, FIG. 20) (CRAF) | activity by targeted PRM (CRAF; H82 proteomes) |
| --- | --- | --- | --- | --- | --- | --- | --- |
| O=C(c1ccc(F)cc1)C1CCN(CCn2c(=O)[nH]c3ccccc3c2=O)CC1 [Ketanserin] | not ketanserin | not ketanserin | not ketanserin | not ketanserin | – | – | – |
| Cc1nc2sccn2c(=O)c1CCN1CCC(=C(c2ccc(F)cc2)c2ccc(F)cc2)CC1 [Ritanserin] | concentrations dependent blockade of recombinant RAF1 activity | ~70% | ~70% | ~70% | most potent targets | inactivates CRAF | potent activity against CRAF |
| Fc1ccc(C(=C2CCNCC2)c2ccc(F)cc2)cc1 [RF001, 4-(Bis(4-fluorophenyl)methylene) piperidine] | – | – | – | – | – | inactivates CRAF | – |

Reference: patent US12643867B2, “Compositions and uses thereof” (University of Virginia Patent Foundation, priority 2017, dated 2026)
